Molecular target: T1, TACE (Homo sapiens, UniProt P78536)
T1 construct: The TACE was isolated and purified from the membranes of the human monocytic cell line, THP-1; endogenous in cells; host or cells: THP-1 human monocytic cell line (ATCC TIB 202), stimulated to produce TNF-α; Enzyme was solubilised from plasma membranes and purified by chromatography
Assay: TACE activity assay (cleavage of TNF-α peptide substrate, HPLC)
Assay type: biochemical
Conditions: dithiothreitol included in plasma membrane isolation from THP-1 cells
Experimental: As further described in Example 1, infra, a quantitative assay for TACE also may be used which assay involves incubating the peptide substrate, at about 1 mM, with TACE at 37° C. for a fixed period of time; stopping the reaction by the addition of an acid or a metal chelator; and determining the extent of cleavage by HPLC analysis.
This Example describes a method for purifying TACE. The TACE was isolated and purified from the membranes of the human monocytic cell line, THP-1, (ATCC no. TIB 202) that had been stimulated to produce TNF-α. THP-1 cells were chosen because they produce more TNF-α than HL-60 cells, a more commonly used human monocytic cell line. […]
This material was incubated at 37° C. for at least 4 hours with the TACE eluted from the DEAE-Sepharose, that had been treated with 1 mM N-methoxysuccinyl-Ala-Ala-Val -chloro-methylketone, 10 μg/ml leupeptin, and 1 mg/ml α1-protease inhibitor, all of which are commercially available. […] Based on this observation, a quantitative assay was established: the peptide, at 1 mM, was incubated with the enzyme at 37° C. for a fixed period of time, in the presence of 0.1 mM dichloroisocoumarin, 1 mM methoxysuccinyl-Ala-Ala-Pro-Val-chloromethyl-ketone, 10 μg/ml leupeptin, 10 μM bestatin, and 1 mg/ml α1-protease inhibitor (Sigma), all of which are commercially available. […]

T1 sequence (P78536 215-824): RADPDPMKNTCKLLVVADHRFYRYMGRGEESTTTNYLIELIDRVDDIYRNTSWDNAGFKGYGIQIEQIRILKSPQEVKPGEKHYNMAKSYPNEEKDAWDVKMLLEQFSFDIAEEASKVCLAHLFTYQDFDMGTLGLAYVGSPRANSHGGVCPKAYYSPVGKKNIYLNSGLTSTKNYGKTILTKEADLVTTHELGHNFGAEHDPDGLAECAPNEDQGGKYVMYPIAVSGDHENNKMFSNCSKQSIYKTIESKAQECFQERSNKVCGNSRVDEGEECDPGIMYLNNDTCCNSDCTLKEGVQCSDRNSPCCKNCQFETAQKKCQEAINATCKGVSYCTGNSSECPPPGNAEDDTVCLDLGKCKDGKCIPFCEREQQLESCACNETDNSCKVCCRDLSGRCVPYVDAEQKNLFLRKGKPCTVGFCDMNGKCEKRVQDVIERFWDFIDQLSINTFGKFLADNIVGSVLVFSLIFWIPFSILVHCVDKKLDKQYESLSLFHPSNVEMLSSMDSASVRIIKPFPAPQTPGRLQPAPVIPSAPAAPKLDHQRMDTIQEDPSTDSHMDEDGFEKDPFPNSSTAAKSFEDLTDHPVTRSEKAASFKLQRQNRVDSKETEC

## O[C@H](CS)[C@H](O)CS (racemic) [dithiothreitol]
  TACE activity: blocks TACE activity

Source: patent US7695948B2, “Antibodies that bind TNF-α converting enzyme” (Immunex Corporation, priority 1995, dated 2010)
